Counter-ions that a name gives are not always drawn.
target: GTP-KRAS-G12D:SOS1 (Homo sapiens (Human), UniProt P01116, G12D); assay: GTP-KRAS-G12D:SOS1 binding inhibition
Procedure: The IC50 of the compounds was fitted using a nonlinear regression equation with GraphPad Prism 8. The results are presented in Table 2: • Negative control: DMSO • Positive control: 100 μM BI-2852
The following nonlinear fitting formula was used to obtain the IC50 (half-maximal inhibitory concentration) of the compounds:
[formula] • X: logarithm of the compound concentration • Y: 665/615 Ratio

GTP-KRAS-G12D:SOS1, sequence (P01116-2 other isoform, or with tags, fused parts or gaps G12D): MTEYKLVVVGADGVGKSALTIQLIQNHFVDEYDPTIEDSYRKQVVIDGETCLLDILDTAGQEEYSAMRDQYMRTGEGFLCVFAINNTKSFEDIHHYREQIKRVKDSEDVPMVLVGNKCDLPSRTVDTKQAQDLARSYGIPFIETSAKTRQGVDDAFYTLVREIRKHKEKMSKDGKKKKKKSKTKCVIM

Row | IC50 [nM] | SMILES
1 | 700 | Cc1cc(N)nc(-c2c(F)c3c4c(nc(OC[C@@]56CCCN5C[C@H](F)C6)nc4c2F)N2CC4CCC(N4)C2CO3)c1C(F)(F)F (single isomer, unassigned) [10a′, (S or R)-6-((5aS,6S,9R)-1,3-Difluoro-13-(((2R,7aS)-2-fluorotetrahydro-1H-pyrrolizin-7a(5H)-yl)methoxy)-5a,6,7,8,9,10-hexahydro-5H-6,9-epiminoazepino[2′,1′:3,4][1,4]oxazepino[5,6,7-de]quinazolin-2-yl)-4-methyl-5-(trifluoromethyl)pyridin-2-amine]
2 | 11.7 | Cc1cc(N)nc(-c2c(F)c3c4c(nc(OC[C@@]56CCCN5C[C@H](F)C6)nc4c2F)N2CC4CCC(N4)C2CO3)c1C(F)(F)F (single isomer, unassigned) [10b′, (R or S)-6-((5aS,6S,9R)-1,3-difluoro-13-(((2R,7aS)-2-fluorotetrahydro-1H-pyrrolizin-7a(5H)-yl)methoxy)-5a,6,7,8,9,10-hexahydro-5H-6,9-epiminoazepino[2′,1′:3,4][1,4]oxazepino[5,6,7-de]quinazolin-2-yl)-4-methyl-5-(trifluoromethyl)pyridin-2-amine]
3 | 314 | O=C1CC2(CCc3c(nc(OC[C@@]45CCCN4C[C@H](F)C5)nc3N3C[C@H]4CC[C@@H](C3)N4)C2)c2cc(O)cc(Cl)c21 (single isomer, unassigned) [Compound 6a, (S or R)-4′-((1R,5S)-3,8-Diazabicyclo[3.2.1]octan-3-yl)-4-chloro-2′-(((2R,7aS)-2-fluorotetrahydro-1H-pyrrolizin-7a(5H)-yl)methoxy)-6-hydroxy-5′,8′-dihydro-6′H-spiro[indene-1,7′-quinazolin]-3 (2H)-one dihydrochloride]
4 | 4010 | Oc1cc(Cl)c2c(c1)C1(CC2)CCc2c(nc(OC[C@@]34CCCN3C[C@H](F)C4)nc2N2CC3CCC(C2)N3)C1F (single isomer, unassigned) [Compound 8c, (1S or 1R,8′R or 8'S)-4′-((1R,5S)-3,8-diazabicyclo[3.2.1]octan-3-yl)-4-chloro-8′-fluoro-2′-(((2R,7aS)-2-fluorotetrahydro-1H-pyrrolizin-7a(5H)-yl)methoxy)-2,3,5′,8′-tetrahydro-6′H-spiro[indene-1,7′-quinazolin]-6-ol dihydrochloride]
5 | 18.5 | Oc1cc(-c2c(F)c3c4c(nc(OC[C@@]56CCCN5C[C@H](F)C6)nc4c2F)N2CC4CCC(N4)C2CO3)c2c(C3CC3)cccc2c1 (single isomer, unassigned) [Compound 11b, 5-cyclopropyl-4-((2S or 2R,5aS,6S,9R)-1,3-difluoro-13-(((2R,7aS)-2-fluorotetrahydro-1H-pyrrolizin-7a(5H)-yl)methoxy)-5a,6,7,8,9,10-hexahydro-5H-6,9-epiminoazepino[2′,1′:3,4][1,4]oxazepino[5,6,7-de]quinazolin-2-yl) naphthalen-2-ol dihydrochloride]
6 | 21.3 | COCCc1cccc2cc(O)cc(-c3c(F)c4c5c(nc(OC[C@@]67CCCN6C[C@H](F)C7)nc5c3F)N3CC5CCC(N5)C3CO4)c12 (single isomer, unassigned) [Compound 12b, 4-((2S or 2R,5aS,6S,9R)-1,3-difluoro-13-(((2R,7aS)-2-fluorotetrahydro-1H-pyrrolizin-7a(5H)-yl)methoxy)-5a,6,7,8,9,10-hexahydro-5H-6,9-epiminoazepino[2′,1′:3,4][1,4]oxazepino[5,6,7-de]quinazolin-2-yl)-5-(2-methoxyethyl) naphthalen-2-ol dihydrochloride]
7 | 2670 | CCc1cccc2cc(O)cc(-c3c(F)c4c5c(nc(OC[C@@]67C[C@H](O)CN6C[C@H](F)C7)nc5c3F)N3CC5CCC(N5)C3CO4)c12 (single isomer, unassigned) [Compound 15a, (2S,6R,7aS)-7a-((((2R or 2S, 5aS,6S,9R)-2-(8-Ethyl-3-hydroxynaphthalen-1-yl)-1,3-difluoro-5a,6,7,8,9,10-hexahydro-5H-6,9-epiminoazepino[2′,1′:3,4][1,4]oxazepino[5,6,7-de]quinazolin-13-yl)oxy)methyl)-6-fluorohexahydro-1H-pyrrolizin-2-ol dihydrochloride]
8 | 6.54 | CCc1cccc2cc(O)cc(-c3c(F)c4c5c(nc(OC[C@@]67C[C@H](O)CN6C[C@H](F)C7)nc5c3F)N3CC5CCC(N5)C3CO4)c12 (single isomer, unassigned) [Compound 15b, (2S,6R,7aS)-7a-((((2S or 2R,5aS,6S,9R)-2-(8-ethyl-3-hydroxynaphthalen-1-yl)-1,3-difluoro-5a,6,7,8,9,10-hexahydro-5H-6,9-epiminoazepino[2′,1′:3,4][1,4]oxazepino[5,6,7-de]quinazolin-13-yl)oxy)methyl)-6-fluorohexahydro-1H-pyrrolizin-2-ol dihydrochloride]
9 | 7220 | CCc1cccc2cc(O)cc(-c3c(F)c4c5c(nc(OC[C@]67C[C@@H](F)CN6C[C@H](CO)C7)nc5c3F)N3CC5CCC(N5)C3CO4)c12 (single isomer, unassigned) [Compound 21a, 4-((2R or 2S, 5aS,6S,9R)-1,3-Difluoro-13-(((2R,6R,7aS)-2-fluoro-6-(hydroxymethyl)tetrahydro-1H-pyrrolizin-7a(5H)-yl)methoxy)-5a,6,7,8,9,10-hexahydro-5H-6,9-epiminoazepino[2′,1′:3,4][1,4]oxazepino[5,6,7-de]quinazolin-2-yl)-5-ethylnaphthalen-2-ol dihydrochloride]
10 | 7.21 | CCc1cccc2cc(O)cc(-c3c(F)c4c5c(nc(OC[C@]67C[C@@H](F)CN6C[C@H](CO)C7)nc5c3F)N3CC5CCC(N5)C3CO4)c12 (single isomer, unassigned) [Compound 21b, 4-((2S or 2R,5aS,6S,9R)-1,3-difluoro-13-(((2R,6R,7aS)-2-fluoro-6-(hydroxymethyl)tetrahydro-1H-pyrrolizin-7a(5H)-yl)methoxy)-5a,6,7,8,9,10-hexahydro-5H-6,9-epiminoazepino[2′,1′:3,4][1,4]oxazepino[5,6,7-de]quinazolin-2-yl)-5-ethylnaphthalen-2-ol dihydrochloride]

Row | SMILES | IC50 [nM]
11 | CCc1cccc2cc(O)cc(-c3c(F)c4c5c(nc(OC[C@@]67CCCN6C[C@H](F)C7)nc5c3F)N3CC5CCC(N5)C3CO4)c12 (single isomer, unassigned) [Compound 5b, (R or S)-4-((5aS,6S,9R)-1,3-difluoro-13-(((2R,7aS)-2-fluorotetrahydro-1H-pyrrolizin-7a(5H)-yl)methoxy)-5a,6,7,8,9,10-hexahydro-5H-6,9-epiminoazepino[2′,1′:3,4][1,4]oxazepino[5,6,7-de]quinazolin-2-yl)-5-ethylnaphthalen-2-ol dihydrochloride] | 2800
12 | CCc1cccc2cc(O)cc(-c3c(F)c4c5c(nc(OC[C@@]67CCCN6C[C@H](F)C7)nc5c3F)N3CC5CCC(N5)C3CCO4)c12 (single isomer, unassigned) [Compound 13b, 4-((2R or 2S, 6aS,7S,10R)-1,3-difluoro-14-(((2R,7aS)-2-fluorotetrahydro-1H-pyrrolizin-7a(5H)-yl)methoxy)-5,6,6a,7,8,9,10,11-octahydro-7,10-epiminoazepino[1′,2′: 5,6][1,5]oxazocino[4,3,2-de]quinazolin-2-yl)-5-ethylnaphthalen-2-ol dihydrochloride] | 8930
13 | Oc1cc(-c2c(F)c3c4c(nc(OC[C@@]56CCCN5C[C@H](F)C6)nc4c2F)N2CC4CCC(N4)C2CO3)c2c3c(ccc2c1)CCC3 (single isomer, unassigned) [Compound 14b, 9-((2S or 2R,5aS,6S,9R)-1,3-difluoro-13-(((2R,7aS)-2-fluorotetrahydro-1H-pyrrolizin-7a(5H)-yl)methoxy)-5a,6,7,8,9,10-hexahydro-5H-6,9-epiminoazepino[2′,1′:3,4][1,4]oxazepino[5,6,7-de]quinazolin-2-yl)-2,3-dihydro-1H-cyclopenta[a]naphthalen-7-ol dihydrochloride] | 15.3
14 | CCc1cccc2cc(O)cc(-c3c(F)c4c5c(nc(OC[C@]67C[C@@H](F)CN6C[C@@H](OC)C7)nc5c3F)N3CC5CCC(N5)C3CO4)c12 (single isomer, unassigned) [Compound 16b, 4-((2S or 2R,5aS,6S,9R)-1,3-difluoro-13-(((2R,6S,7aS)-2-fluoro-6-methoxytetrahydro-1H-pyrrolizin-7a(5H)-yl)methoxy)-5a,6,7,8,9,10-hexahydro-5H-6,9-epiminoazepino[2′, l′: 3,4][1,4]oxazepino[5,6,7-de]quinazolin-2-yl)-5-ethylnaphthalen-2-ol dihydrochloride] | 7.55
15 | CCc1cccc2cc(O)cc(-c3c(F)c4c5c(nc(OC[C@]67C[C@@H](F)CN6C[C@@H](COC)C7)nc5c3F)N3CC5CCC(N5)C3CO4)c12 (single isomer, unassigned) [Compound 18a, 4-((2R or 2S, 5aS,6S,9R)-1,3-Difluoro-13-(((2R,6S,7aS)-2-fluoro-6-(methoxymethyl)tetrahydro-1H-pyrrolizin-7a(5H)-yl)methoxy)-5a,6,7,8,9,10-hexahydro-5H-6,9-epiminoazepino[2′,1′:3,4][1,4]oxazepino[5,6,7-de]quinazolin-2-yl)-5-ethylnaphthalen-2-ol dihydrochloride] | 1940
16 | CCc1cccc2cc(O)cc(-c3c(F)c4c5c(nc(OC[C@@]67CCC8(CC8)N6C[C@H](F)C7)nc5c3F)N3CC5CCC(N5)C3CO4)c12 (single isomer, unassigned) [Compound 20b, 4-((2S or 2R,5aS,6S,9R)-1,3-difluoro-13-(((6′R,7a'S)-6′-fluorotetrahydrospiro[cyclopropane-1,3′-pyrrolizin]-7a′ (5′H)methoxy)-5a,6,7,8,9,10-hexahydro-5H-[6,9]epiminoazepino[2′,1′:3,4][1,4]oxazepino[5,6,7-de]quinazolin-2-yl)-5-ethylnaphthalen-2-oldihydrochloride] | 8.81

Source: patent publication US20250197424A1, “QUINOLINE COMPOUND AND USE THEREOF” (SHANGHAI PHARMACEUTICALS HOLDING CO., LTD., priority 2022, published 2025)
